Assay results reported in US11753433B2, “Methods of synthesizing substituted purine compounds” (Epizyme, Inc., priority 2013, dated 2023).

Tests used:
[1] = Dynamic vapor sorption (DVS) hygroscopicity; format: physicochemical; settings: at 80% RH, 25° C.
Method: (peak temperature) which is accompanied by 5.9 wt % weight loss up to ˜150° C. in the TGA curve (FIG. 3). […] A solid is considered moderately hygroscopic when water uptake at 25° C./80% RH is between 2-15 wt % based on criteria of European Pharmacopeia. […] Form B of EP-1 trihydrate (x is 3) is a trihydrate as confirmed by single crystal analysis. The experimental XRPD pattern of Form B matches well with the simulated one from single crystal data (FIG. 6). This was also confirmed by DSC and TGA data (FIG. 7 and FIG. 8, respectively). DSC data indicates Form B dehydrates at ˜132° C. […] Form B is slightly hygroscopic as evidenced by a weight change of ˜0.3% between 0% and 95% RH (FIG. 9), (data collection was programmed from 95% RH-0% RH-95% RH at a step size of 10% RH at 25° C.).

[2] = Solubility in Simulated Gastric Fluid (SGF) at 37° C.; format: physicochemical; settings: for Resulting Solid: XRPD; for Solubility: calculated using free base content
Method: To study if Form A and Form B would perform differently in stomach, the solubilities of Form A and Form B were measured in Simulated Gastric Fluid (SGF, see below for SGF preparation) at 37° C. […] The remaining solids after each time point were subject to XRPD analysis. […] Weigh appropriate amount of hydrochloride (HCl) and sodium chloride (NaCl) into a 1-L flask followed by addition of 1-L deionized water. The mixture was stirred until all solids are dissolved. Check pH value with a pH-meter and adjust the pH to 1.8 with HCl (1N) or NaOH (1N).

CC(C)N(CC1O[C@@H](n2cnc3c(N)ncnc32)[C@H](O)[C@@H]1O)C1CC(CCc2nc3cc(C(C)(C)C)ccc3[nH]2)C1 (stereo partly drawn) [Form A, (2R,3R,4S,5R)-2-(6-amino-9H-purin-9-yl)-5-((((1r,3S)-3-(2-(5-(tert-butyl)-1H-benzo[d]imidazol-2-yl)ethyl)cyclobutyl)(isopropyl)amino)methyl)tetrahydrofuran-3,4-diol hydrate]
water adsorption measured by dynamic vapor sorption (DVS) [1]: ~5.8 wt %
Final pH [2]: 5.1
time of conversion of Form A to Form B in SGF [2]: ≤ 15 min
Resulting Solid ([2]; 15 min): Type B
Solubility ([2]; 15 min): 5.4 mg/mL
Resulting Solid ([2]; 30 min): Type B
Solubility ([2]; 30 min): 5.5 mg/mL
Resulting Solid ([2]; 60 min): Type B
Solubility ([2]; 60 min): 5.3 mg/mL
